From patent US20260283968A1, “METHOD FOR PRODUCING MILK LIKE PRODUCTS” (SOCIÉTÉ DES PRODUITS NESTLÉ S.A., priority 2023, published 2026)

B1: BMP4: bone morphogenetic protein 4, differentiation factor added to the culture medium (protein, UniProt P12644 293-408, looked up)
Bone morphogenetic protein 4: SPKHHSQRARKKNKNCRRHSLYVDFSDVGWNDWIVAPPGYQAFYCHGDCPFPLADHLNSTNHAIVQTLVNSVNSSIPKACCVPTELSAISMLYLDEYDKVVLKNYQEMVVEGCGCR

Key:
[1] = test system: iPSCs derived mammary gland organoids; assay: Flow cytometry quantification of mammary gland progenitor markers during 3D differentiation of iPSCs; type: cell-based, human; details: 20 ng/mL BMP4, 1 μM RA, single or combination, 42 days or 31 days protocol, vs control condition
Text: In order to generate milk bioactives that closely resemble those found in human breast milk, different methods using bone morphogenetic protein 4 (BMP4) and retinoic acid (RA) in 42 days and 31 days as a shortened time-course protocol were established in a 3D-platform using iPSCs derived mammary gland organoids as a biomimetic model of the human mammary gland (FIG. 6).

[2] = test system: iPS-derived mammary-gland cells; assay: LC-MS/MS targeted proteomic analysis of osteopontin secretion in culture media; type: cell-based, human; details: BMP4 and RA added to the differentiation culture medium

Molecule | expression of mammary gland progenitor markers EpCAM (CD326), CD49f, MUC1 (CD227), GATA3 [1] | expression and secretion of milk-specific bioactive marker osteopontin (OPN) [2]
CC1=C(/C=C/C(C)=C/C=C/C(C)=C/C(=O)O)C(C)(C)CCC1 [RA, retinoic acid] | can induce the expression of mammary gland progenitor markers | improve expression and secretion levels of milk-specific bioactive markers
B1 | can induce the expression of mammary gland progenitor markers | improve expression and secretion levels of milk-specific bioactive markers
